Source: ChEMBL document CHEMBL1201862, “PubChem BioAssay data set” (2004)
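All cell lines were grown in 96-well plates and treated with compound for 48 hours. GI50 is the concentration that inhibits growth by half.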 Activity calls are given as the source filed them. No stated cut-off is given here; in the data, active = GI50 up to about 1.1 µM and inactive = higher.

Assays:
Experiment in all cases: NCI anticancer screen, dose series, 48 h
SNB-19 = tested on: SNB-19
SK-MEL-2 = tested on: SK-MEL-2
SF-539 = tested on: SF-539
NCI-H23 = tested on: NCI-H23
UACC-62 = tested on: UACC-62
IGROV-1 = tested on: IGROV-1
UACC-257 = tested on: UACC-257
OVCAR-3 = tested on: OVCAR-3
ACHN = tested on: ACHN
TK-10 = tested on: TK-10
HCT-116 = tested on: HCT-116
K562 = tested on: K562
SN12C = tested on: SN12C
SK-MEL-28 = tested on: SK-MEL-28
RPMI-8226 = tested on: RPMI-8226
SF-295 = tested on: SF-295
LOX IMVI = tested on: LOX IMVI
786-0 = tested on: 786-0

Measured: GI50

O=[N+]([O-])c1ccc(-c2ccc(-c3csc(Nc4ccccc4)n3)o2)cc1
inactive: SNB-19 40 µM | SK-MEL-2 19.2 µM | SF-539 18.8 µM | NCI-H23 20.2 µM | UACC-62 21.3 µM | IGROV-1 25.1 µM | UACC-257 17.9 µM | OVCAR-3 19.3 µM | ACHN 17.3 µM | TK-10 19.1 µM | HCT-116 21.5 µM | K562 7.59 µM | SN12C 18.6 µM | SK-MEL-28 17.6 µM | RPMI-8226 12.2 µM | SF-295 34.6 µM | LOX IMVI 18.5 µM | 786-0 17.1 µM

COC(=O)/C=C1\CCC2[C@@H](C(=O)CC3[C@]2(C)CCC[C@@]3(C)C(=O)OC)C1C (stereo partly specified)
inactive: SNB-19 32.4 µM | SK-MEL-2 18.2 µM | SF-539 25.2 µM | NCI-H23 > 10 µM | UACC-62 13.6 µM | IGROV-1 24.6 µM | UACC-257 17.9 µM | OVCAR-3 22.7 µM | ACHN 22.5 µM | TK-10 19.5 µM | HCT-116 18.5 µM | K562 15 µM | SN12C 24.8 µM | SK-MEL-28 16.3 µM | RPMI-8226 3.93 µM | SF-295 25.6 µM | 786-0 31.3 µM

O=C(Nc1ccc(Cl)c(C(F)(F)F)c1)C(=O)C(C(=O)/C=C/c1ccccc1)C1OC(=O)c2ccccc21 (stereo unspecified)
inactive: SNB-19 > 100 µM | NCI-H23 > 100 µM | UACC-62 71.1 µM | IGROV-1 > 100 µM | UACC-257 > 100 µM | OVCAR-3 > 100 µM | ACHN > 100 µM | TK-10 > 100 µM | HCT-116 33.1 µM | K562 > 100 µM | SN12C > 100 µM | RPMI-8226 72.8 µM | SF-295 > 100 µM | LOX IMVI 90.2 µM | 786-0 > 100 µM

COC(=O)NN=C1C(C)(C)C(=O)C1(C)C
inactive: SK-MEL-2 > 100 µM | SF-539 > 100 µM | NCI-H23 > 100 µM | UACC-62 > 100 µM | IGROV-1 > 100 µM | UACC-257 > 100 µM | OVCAR-3 > 100 µM | ACHN > 100 µM | TK-10 > 100 µM | HCT-116 > 100 µM | K562 > 100 µM | SK-MEL-28 > 100 µM | RPMI-8226 > 100 µM | SF-295 > 100 µM | LOX IMVI > 100 µM | 786-0 > 100 µM

O=C1C2Nc3ccccc3SC2C(=O)N1c1ccccc1C(F)(F)F (stereo unspecified)
inactive: SNB-19 18.1 µM | SK-MEL-2 27.2 µM | SF-539 17.8 µM | NCI-H23 24 µM | UACC-62 19 µM | IGROV-1 54.1 µM | UACC-257 > 100 µM | OVCAR-3 22.3 µM | ACHN 40.3 µM | TK-10 42.1 µM | HCT-116 24.5 µM | K562 3.99 µM | SN12C 27.2 µM | SK-MEL-28 51.9 µM | RPMI-8226 29 µM | SF-295 14.9 µM | LOX IMVI 40.2 µM | 786-0 25.2 µM

[O-]c1c2c(nn1-c1ccc(Cl)cc1)c1ccccc1c[n+]2Cc1ccccc1
inactive: SNB-19 > 100 µM | SK-MEL-2 > 100 µM | SF-539 80.4 µM | NCI-H23 > 100 µM | UACC-62 44.6 µM | IGROV-1 62.4 µM | UACC-257 > 100 µM | OVCAR-3 > 100 µM | ACHN 80.5 µM | TK-10 > 100 µM | HCT-116 > 100 µM | K562 > 100 µM | SN12C > 100 µM | SK-MEL-28 > 100 µM | RPMI-8226 > 100 µM | SF-295 78.9 µM | LOX IMVI > 100 µM | 786-0 33.3 µM

N=C(N)N/N=C(/c1nc2ccc([N+](=O)[O-])cc2[nH]c1=O)C(O)c1ccc([N+](=O)[O-])cc1 (stereo unspecified)
inactive: SNB-19 > 100 µM | SF-539 31.3 µM | NCI-H23 > 100 µM | UACC-62 15.7 µM | IGROV-1 > 100 µM | UACC-257 > 100 µM | OVCAR-3 94.2 µM | ACHN 21.3 µM | HCT-116 > 100 µM | K562 > 100 µM | SN12C > 100 µM | SK-MEL-28 78.5 µM | RPMI-8226 > 100 µM | SF-295 > 100 µM | LOX IMVI 38.5 µM | 786-0 > 100 µM

O=C1[C@@H]2C(c3ccccc3[N+](=O)[O-])=[N+](c3ccccc3)O[C@@H]2C(=O)N1c1ccc(Cc2ccc(N3C(=O)[C@H]4C(c5ccccc5[N+](=O)[O-])=[N+](c5ccccc5)O[C@H]4C3=O)cc2)cc1
inactive: SNB-19 > 100 µM | SK-MEL-2 > 100 µM | SF-539 > 100 µM | NCI-H23 > 100 µM | UACC-62 67.6 µM | IGROV-1 > 100 µM | UACC-257 > 100 µM | OVCAR-3 > 100 µM | ACHN > 100 µM | TK-10 > 100 µM | HCT-116 > 100 µM | K562 > 100 µM | SN12C > 100 µM | SK-MEL-28 > 100 µM | RPMI-8226 > 100 µM | SF-295 > 100 µM | LOX IMVI > 100 µM | 786-0 > 100 µM

COc1cccc(NC(=O)CC(=O)N2NC(c3ccccc3)C(/N=N/c3cccc(C(=O)O)c3)C2=O)c1 (stereo unspecified)
inactive: SNB-19 28.1 µM | SF-539 > 100 µM | NCI-H23 > 100 µM | UACC-62 30.5 µM | IGROV-1 > 100 µM | UACC-257 > 100 µM | OVCAR-3 38.2 µM | ACHN > 100 µM | TK-10 > 100 µM | HCT-116 > 100 µM | SN12C > 100 µM | SK-MEL-28 > 100 µM | RPMI-8226 70 µM | SF-295 > 100 µM | LOX IMVI > 100 µM | 786-0 > 100 µM

C/C(=N/NC(N)=S)C(CN1CCOCC1)C(C1=C(O)c2ccccc2OC1)c1ccccc1 (stereo unspecified)
inactive: SNB-19 > 100 µM | SK-MEL-2 > 100 µM | SF-539 > 100 µM | NCI-H23 > 100 µM | UACC-62 > 100 µM | IGROV-1 > 100 µM | UACC-257 > 100 µM | OVCAR-3 > 100 µM | ACHN > 100 µM | TK-10 > 100 µM | HCT-116 85.5 µM | K562 93.1 µM | SN12C > 100 µM | RPMI-8226 90.2 µM | SF-295 > 100 µM | LOX IMVI > 100 µM | 786-0 > 100 µM

CC(=O)OC1[C@H]2c3cc4c(cc3CN3CCC(C[C@@H]1OC(C)=O)C23)OCO4 (stereo partly specified)
inactive: SNB-19 > 75 µM | SF-539 > 75 µM | NCI-H23 > 75 µM | UACC-62 > 75 µM | IGROV-1 > 75 µM | UACC-257 > 75 µM | OVCAR-3 > 75 µM | ACHN > 75 µM | TK-10 > 75 µM | HCT-116 > 75 µM | K562 > 75 µM | SN12C > 75 µM | SK-MEL-28 > 75 µM | RPMI-8226 > 75 µM | SF-295 > 75 µM | LOX IMVI > 75 µM | 786-0 > 75 µM

O=[N+]([O-])c1ccc(Cc2nc3ccccc3s2)cc1
inactive: SNB-19 > 100 µM | SK-MEL-2 > 100 µM | SF-539 26.8 µM | NCI-H23 > 100 µM | UACC-62 68.1 µM | IGROV-1 > 100 µM | UACC-257 > 100 µM | OVCAR-3 > 100 µM | ACHN > 100 µM | TK-10 > 100 µM | HCT-116 38.9 µM | K562 43.7 µM | SN12C 36.1 µM | SK-MEL-28 > 100 µM | RPMI-8226 49.4 µM | SF-295 > 100 µM | 786-0 > 100 µM

CSC(C1c2ccccc2N(C)c2[nH]c(=O)n(C)c(=O)c21)S(=O)(=O)c1ccc(C)cc1 (stereo unspecified)
inactive: SNB-19 > 100 µM | SK-MEL-2 > 100 µM | SF-539 42.7 µM | NCI-H23 54.8 µM | UACC-62 > 100 µM | IGROV-1 > 100 µM | UACC-257 60 µM | OVCAR-3 > 100 µM | TK-10 > 100 µM | HCT-116 68.2 µM | K562 43.6 µM | SN12C > 100 µM | SK-MEL-28 > 100 µM | RPMI-8226 > 10 µM | SF-295 > 100 µM | LOX IMVI > 100 µM | 786-0 > 100 µM

Cn1cc2c(n1)c(N/N=C/c1ccccc1)nn1nnnc21
inactive: SNB-19 > 100 µM | SF-539 > 100 µM | NCI-H23 > 100 µM | UACC-62 > 100 µM | IGROV-1 > 100 µM | UACC-257 > 100 µM | OVCAR-3 > 100 µM | ACHN > 100 µM | TK-10 > 100 µM | HCT-116 > 100 µM | K562 > 100 µM | SN12C > 100 µM | SK-MEL-28 > 100 µM | RPMI-8226 > 100 µM | SF-295 > 100 µM | LOX IMVI > 100 µM | 786-0 > 100 µM

CCOC(=O)/C(=C\c1cccs1)P(=O)(OCC)OCC
inactive: SNB-19 53.2 µM | SK-MEL-2 16.4 µM | SF-539 20.8 µM | NCI-H23 18.9 µM | UACC-62 16.4 µM | UACC-257 23.2 µM | OVCAR-3 19.8 µM | ACHN 17.6 µM | TK-10 36.6 µM | HCT-116 19.2 µM | K562 29.9 µM | SN12C 19.7 µM | SK-MEL-28 17.2 µM | RPMI-8226 20.4 µM | SF-295 29.4 µM | LOX IMVI 15.7 µM | 786-0 21.9 µM

O=C(CSc1nnc(Cc2ccccc2)o1)Nc1ccc([N+](=O)[O-])cc1
inactive: SK-MEL-2 > 100 µM | SF-539 > 100 µM | NCI-H23 89.7 µM | UACC-62 > 100 µM | IGROV-1 > 100 µM | UACC-257 > 100 µM | OVCAR-3 > 100 µM | ACHN > 100 µM | TK-10 62.2 µM | HCT-116 > 100 µM | K562 40.2 µM | SN12C > 100 µM | SK-MEL-28 > 100 µM | RPMI-8226 > 100 µM | SF-295 52 µM | LOX IMVI 61.7 µM | 786-0 > 100 µM
